The values below come from patent US7547706B2, “1H-pyrimido[4,5-b]indole derivatives, their preparation and therapeutic use” (Sanofi-Aventis, priority 2005, dated 2009).

Where a name gives a salt, the structure may show the parent alone. Marks after values point to notes of the source that are not given here.

Tested on in the first series: not given
Experiment: not given
Conditions: not given
As for `Cc1nc(-c2nc(C(=O)N(C)C)c3c4ccc(Cl)cc4n(C)c3n2)cs1` [Compound 46, 7-chloro-N,N,9-trimethyl-2-(2-methyl-1,3-thiazol-4-yl)-9H-pyrimido[4,5-b]indole-4-carboxamide], the melting point lay in the range of 256 to 258 °C.

Turning to `CN(C)C(=O)c1nc(-c2cnccn2)nc2c1c1ccc(Cl)cc1n2C` [Compound 18, 7-chloro-N,N,9-trimethyl-2-pyrazin-2-yl-9H-pyrimido[4,5-b]indole-4-carboxamide], the melting point lay within 272 to 273 °C.

For the compound `CN(C)C(=O)c1nc(C2CC2)nc2c1c1ccc(Cl)cc1n2C` [Compound 32, 7-chloro-2-cyclopropyl-N,N,9-trimethyl-9H-pyrimido[4,5-b]indole-4-carboxamide], the melting point was in the range of 197 to 198 °C.

As to `COc1cncc(-c2nc(C(=O)N(C)C)c3c4ccc(Cl)cc4n(C)c3n2)c1` [Compound 44, 7-chloro-2-(5-methoxypyridin-3-yl)-N,N,9-trimethyl-9H-pyrimido[4,5-b]indole-4-carboxamide], the melting point lay in the range of 258 to 260 °C.

`CC(C)Cn1c2cc(Cl)ccc2c2c(C(=O)N(C)C)nc(-c3ccncc3)nc21` (as salt: HCl) [Compound 31, 7-chloro-9-isobutyl-N,N-dimethyl-2-pyridin-4-yl-9H-pyrimido[4,5-b]indole-4-carboxamide]: the melting point fell in the range of 230 to 236 °C.

Compound `COc1ccc(-c2nc(C(=O)N(C)C)c3c4ccc(Cl)cc4n(C)c3n2)cn1` [Compound 28, 7-chloro-2-(6-methoxypyridin-3-yl)-N,N,9-trimethyl-9H-pyrimido[4,5-b]indole-4-carboxamide] displayed a melting point of 267 to 268 °C.

Regarding `CN(C)C(=O)c1nc(-c2cncnc2)nc2c1c1ccc(Cl)cc1n2C` [Compound 43, 7-chloro-N,N,9-trimethyl-2-pyrimidin-5-yl-9H-pyrimido[4,5-b]indole-4-carboxamide], the melting point lay in the range of 322 to 325 °C.

Compound `CN(C)C(=O)c1nc(-c2ccccc2)nc2c1c1ccccc1n2C` [Compound 1, N,N,9-trimethyl-2-phenyl-9H-pyrimido[4,5-b]indole-4-carboxamide] returned a melting point of 193 to 195 °C.

`CN(C)C(=O)c1nc(-c2ccccc2)nc2c1c1cc(Cl)ccc1n2C` [Compound 4, 6-chloro-N,N,9-trimethyl-2-phenyl-9H-pyrimido[4,5-b]indole-4-carboxamide] showed a melting point of 222 to 224 °C.

As for `CCc1cncc(-c2nc(C(=O)N(C)C)c3c4ccc(Cl)cc4n(C)c3n2)c1` [Compound 41, 7-chloro-2-(5-ethylpyridin-3-yl)-N,N,9-trimethyl-9H-pyrimido[4,5-b]indole-4-carboxamide], the melting point fell in the range of 218 to 219 °C.

Consider `CN(C)C(=O)c1nc(-c2cnc3c(c2)CCCC3)nc2c1c1ccc(Cl)cc1n2C.Cl`, for which the melting point was in the range of 289 to 291 °C.

For `CCc1ccc(-c2nc(C(=O)N(C)C)c3c4ccc(Cl)cc4n(C)c3n2)cn1` [Compound 40, 7-chloro-2-(6-ethylpyridin-3-yl)-N,N,9-trimethyl-9H-pyrimido[4,5-b]indole-4-carboxamide], the melting point lay within 232 to 235 °C.

For the compound `COc1cc(-c2nc(C(=O)N(C)C)c3c4ccc(Cl)cc4n(C)c3n2)ccn1` [Compound 30, 7-chloro-2-(2-methoxypyridin-4-yl)-N,N,9-trimethyl-9H-pyrimido[4,5-b]indole-4-carboxamide], the melting point is 278 to 279 °C.

Compound `CN(C)C(=O)Cc1nc(-c2ccncc2)nc2c1c1ccc(Cl)cc1n2C` [Compound 21, 2-(7-chloro-9-methyl-2-pyridin-4-yl-9H-pyrimido[4,5-b]indol-4-yl)-N,N-dimethylacetamide] displayed a melting point of 231 to 232 °C.

With `CN(C)C(=O)Cc1nc(-c2cccnc2)nc2c1c1ccc(Cl)cc1n2C` [Compound 22, 2-(7-chloro-9-methyl-2-pyridin-3-yl-9H-pyrimido[4,5-b]indol-4-yl)-N,N-dimethylacetamide], the melting point was 248 to 251 °C.

`CN(C)C(=O)c1nc(-c2ccc(Cl)nc2)nc2c1c1ccc(Cl)cc1n2C` [Compound 37, 7-chloro-2-(6-chloropyridin-3-yl)-N,N,9-trimethyl-9H-pyrimido[4,5-b]indole-4-carboxamide] had a melting point of 275 to 276 °C.

In the case of `CC(C)c1nc(C(=O)N(C)C)c2c3ccc(Cl)cc3n(C)c2n1` [Compound 34, 7-chloro-2-isopropyl-N,N,9-trimethyl-9H-pyrimido[4,5-b]indole-4-carboxamide], the melting point was 125 to 126 °C.

In the case of `Cn1c2cc(Cl)ccc2c2c(C(=O)N3CCCC3)nc(-c3ccncc3)nc21` [Compound 14, 7-chloro-9-methyl-2-pyridin-4-yl-4-(pyrrolidin-1-ylcarbonyl)-9H-pyrimido[4,5-b]indole], the melting point was 256 to 258 °C.

Take `CN(C)C(=O)c1nc(-c2ccccc2)nc2[nH]c3ccccc3c12` [Compound 23, N,N-dimethyl-2-phenyl-9H-pyrimido[4,5-b]indole-4-carboxamide]: the melting point lay in the range of 218 to 219 °C.

The compound `CCOC(=O)c1nc(-c2ccccc2)nc2c1c1ccc(Cl)cc1n2C` [Compound 24, Ethyl 7-chloro-9-methyl-2-phenyl-9H-pyrimido[4,5-b]indole-4-carboxylate] came in with a melting point of 139 to 140 °C.

The compound `Cc1cc(-c2nc(C(=O)N(C)C)c3c4ccc(Cl)cc4n(C)c3n2)cc(C)n1.Cl` gave a melting point of 288 to 292 °C.

`CN(C)C(=O)c1nc(-c2ccccc2)nc2c1c1ccc(F)cc1n2C` [Compound 3, 7-fluoro-N,N,9-trimethyl-2-phenyl-9H-pyrimido[4,5-b]indole-4-carboxamide] displayed a melting point of 229 to 231 °C.

Compound `CN(C)C(=O)c1nc(-c2cccnc2)nc2c1c1ccc(Cl)cc1n2C` [Compound 16, 7-chloro-N,N,9-trimethyl-2-pyridin-3-yl-9H-pyrimido[4,5-b]indole-4-carboxamide] displayed a melting point of 283 to 284 °C.

For the compound `Cc1cc(-c2nc(C(=O)N(C)C)c3c4ccc(Cl)cc4n(C)c3n2)cnc1C.Cl`, the melting point lay in the range of 285 to 289 °C.

Compound `CN(C)C(=O)c1nc(C2CCOCC2)nc2c1c1ccc(Cl)cc1n2C` [Compound 35, 7-chloro-N,N,9-trimethyl-2-(tetrahydro-2H-pyran-4-yl)-9H-pyrimido[4,5-b]indole-4-carboxamide] came in with a melting point of 174.5 to 175.5 °C.

In the case of `CCOc1ccc(-c2nc(C(=O)N(C)C)c3c4ccc(Cl)cc4n(C)c3n2)cn1` [Compound 39, 7-chloro-2-(6-ethoxypyridin-3-yl)-N,N,9-trimethyl-9H-pyrimido[4,5-b]indole-4-carboxamide], the melting point is 237 to 239 °C.

For `Cn1c2cc(Cl)ccc2c2c(C(=O)O)nc(-c3ccccc3)nc21` [Compound 26, 7-chloro-9-methyl-2-phenyl-9H-pyrimido[4,5-b]indole-4-carboxylic acid], the melting point was 208 to 209 °C.

In the case of `CN(C)C(=O)c1nc(-c2ccccc2)nc2[nH]c3cc(Cl)ccc3c12` [Compound 5, 7-chloro-N,N-dimethyl-2-phenyl-9H-pyrimido[4,5-b]indole-4-carboxamide], the melting point was 232 to 233 °C.

Take `Cc1cncc(-c2nc(C(=O)N(C)C)c3c4ccc(Cl)cc4n(C)c3n2)c1` [Compound 42, 7-chloro-N,N,9-trimethyl-2-(5-methylpyridin-3-yl)-9H-pyrimido[4,5-b]indole-4-carboxamide]: the melting point is 313 to 314 °C.

For `CN1CCN(C(=O)c2nc(-c3ccccc3)nc3c2c2ccc(Cl)cc2n3C)CC1` [Compound 11, 7-chloro-9-methyl-4-[(4-methylpiperazin-1-yl)carbonyl]-2-phenyl-9H-pyrimido[4,5-b]indole], the melting point is 236 to 238 °C.

`COCc1ccc(-c2nc(C(=O)N(C)C)c3c4ccc(Cl)cc4n(C)c3n2)cn1` [Compound 45, 7-chloro-2-[6-(methoxymethyl)pyridin-3-yl]-N,N,9-trimethyl-9H-pyrimido[4,5-b]indole-4-carboxamide]: the melting point is 239 to 241 °C.

As to `CN(C)Cc1ccc(-c2nc(C(=O)N(C)C)c3c4ccc(Cl)cc4n(C)c3n2)cn1` (as salt: HCl) [Compound 47, 7-chloro-2-{6-[(dimethylamino)methyl]pyridin-3-yl}-N,N,9-trimethyl-9H-pyrimido[4,5-b]indole-4-carboxamide], the melting point was 240 to 242 °C.

In turn, `Cc1nc(C(=O)N(C)C)c2c3ccc(Cl)cc3n(C)c2n1` [Compound 33, 7-chloro-N,N,2,9-tetramethyl-9H-pyrimido[4,5-b]indole-4-carboxamide] showed a melting point of 193 to 195 °C.

A further series addresses T1, peripheral benzodiazepine receptors (p or PBR sites) (Rattus norvegicus, UniProt P16257).
T1 construct: After decapitation, the kidney was removed and the tissue was homogenized; from tissue; host or cells: kidney membrane homogenate of male Sprague Dawley rats
The series is described as follows: Binding of [3H]Ro5-4864 to peripheral benzodiazepine receptors in rat kidney membranes. Particulars: [3H]Ro5-4864 0.5 nM, 3 h at 0° C., read-out: IC50, concentration which inhibits 50% of the specific binding of [3H]Ro5-4864.
Regarding `CN(C)C(=O)c1nc(-c2ccncc2)nc2c1c1ccc(Cl)cc1n2C` [Compound 15, 7-chloro-N,N,9-trimethyl-2-pyridin-4-yl-9H-pyrimido[4,5-b]indole-4-carboxamide], the IC50 was 3.1 nM.

Turning to `CN(C)C(=O)c1nc(-c2ccccc2)nc2c1c1ccc(Cl)cc1n2C` [Compound 2, 7-chloro-N,N,9-trimethyl-2-phenyl-9H-pyrimido[4,5-b]indole-4-carboxamide], the IC50 is 2.2 nM.

The next series concerns motor neurons of the facial nucleus. The experiment in a line: Survival of the motor neurons after sectioning the facial nerve in rats aged 4 days. In kind it is in vivo, rat. The following applies: via oral route, at 10 mg/kg; treated for 7 days; facial nerve lesion in 4 day old rats. The procedure:
Test of Survival of the Motor Neurons after Sectioning the Facial Nerve in Rats Aged 4 Days
After lesion of the facial nerve in immature rats, the motor neurons of the facial nucleus underwent neuronal death by apoptosis. Neural survival was evaluated using histological methods and neuronal counting.
4 day old immature rats were anesthetized with pentobarbital (3 mg/kg by the i.p. route). The right facial nerve was exposed and sectioned, at its outlet from the stylomastoid foramen. After waking up, the young rats were returned to their mothers and treated for 7 days with one or two daily administrations, via oral or intraperitoneal route, at doses ranging from 1 to 10 mg/kg.
7 days after the lesion, the animals were decapitated and the brains frozen in isopentane at −40° C. The entire facial […] was cut with a cryostat into 10 μm sections. The motor neurons were colored with cresyl violet and counted using the Histo™ software (Biocom™).
With `CN(C)C(=O)c1nc(-c2ccncc2)nc2c1c1ccc(Cl)cc1n2C` [Compound 15, 7-chloro-N,N,9-trimethyl-2-pyridin-4-yl-9H-pyrimido[4,5-b]indole-4-carboxamide], the “% increase of neuronal survival” value is “+40* %”.

With `CN(C)C(=O)c1nc(-c2ccccc2)nc2c1c1ccc(Cl)cc1n2C` [Compound 2, 7-chloro-N,N,9-trimethyl-2-phenyl-9H-pyrimido[4,5-b]indole-4-carboxamide], the “% increase of neuronal survival” value is “+25* %”.

One may read the melting point as the temperature of the solid-liquid transition.
